Source: patent US5274121A, “N-methyl-N-[4-(1-pyrrolidinyl)-2-butynyl]amide congeners as muscarinic agents” (priority 1992, dated 1993)
Like-named read-outs stand apart in the source and are kept apart here.

Key:
[1] = target: T1, muscarinic receptors, NG108-15 cell membranes (m3 AChR) (Mus musculus, UniProt P32211); assay: Inhibition of [3H]-NMS binding to membranes from NG108-15 cells; details: for inhibition at 50 µM: read-out: binding (% inhibition of 3H-NMS binding); for inhibition at 100 µM: conc. of compounds = 100 μM
T1 construct: membranes from NG108-15 cells; endogenous in cells; host or cells: NG108-15 neuroblastoma x glioma hybrid cells (crude membrane fraction)
T1 sequence (P32211 1-479): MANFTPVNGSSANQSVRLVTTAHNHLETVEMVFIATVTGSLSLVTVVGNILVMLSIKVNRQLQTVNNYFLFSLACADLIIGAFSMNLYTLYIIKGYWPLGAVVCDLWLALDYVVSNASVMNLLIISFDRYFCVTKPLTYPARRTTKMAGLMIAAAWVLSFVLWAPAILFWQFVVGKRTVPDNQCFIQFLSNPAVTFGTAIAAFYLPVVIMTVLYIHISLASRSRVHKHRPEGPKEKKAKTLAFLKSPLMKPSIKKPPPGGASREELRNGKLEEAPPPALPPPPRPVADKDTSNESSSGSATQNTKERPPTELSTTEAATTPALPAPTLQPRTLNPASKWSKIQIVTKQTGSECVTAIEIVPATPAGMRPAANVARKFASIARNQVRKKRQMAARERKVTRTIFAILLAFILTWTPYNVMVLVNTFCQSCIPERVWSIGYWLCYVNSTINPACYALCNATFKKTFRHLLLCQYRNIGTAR
Source text: (§1) Compounds of the present invention were screened for their biological activity. Assay systems using SK-N-SH human neuroblastoma cells which express only m4 -AChRs coupled to PI turnover, and NG108-15 neuroblastoma x glioma cells which express only m3 AChRs coupled to adenylate cyclase inhibition were used.
(§2) Compounds of the present invention were also screened for their relative binding affinities. Assay systems which measured the inhibition of ^3 H-N-methylscopolamine (^3 H-NMS) binding to membranes from NG108-15 cells and membranes from SK-N-SH cells were used.
(§3) Inhibition of [^3 H]-NMS binding
(§4) Cells were grown to confluence, harvested, and a crude membrane fraction was obtained. […] The total volume was 1 mL. The incubation was terminated by rapid filtration over GF/B filters using a Brandel cell harvester. The filters were washed three times with ice-cold 0.9% NaCl, equilibrated in scintillation counting fluid and counted on a Beckman LS 5801 liquid scintillation counter at 47% efficiency. Non-specific binding was determined by coincubation with 1 μM atropine, and amounted to less than 15% of total counts. It was routinely subtracted from the total counts.

[2] = target: T2, muscarinic receptors, SK-N-SH cell membranes (m4 AChR) (Homo sapiens, UniProt P20309); assay: Inhibition of [3H]-NMS binding to membranes from SK-N-SH cells; details: for inhibition at 50 µM: read-out: binding (% inhibition of 3H-NMS binding); for inhibition at 100 µM: conc. of compounds = 100 μM
T2 construct: membranes from SK-N-SH cells; endogenous in cells; host or cells: SK-N-SH human neuroblastoma cells (crude membrane fraction)
T2 sequence (P20309 whole entry): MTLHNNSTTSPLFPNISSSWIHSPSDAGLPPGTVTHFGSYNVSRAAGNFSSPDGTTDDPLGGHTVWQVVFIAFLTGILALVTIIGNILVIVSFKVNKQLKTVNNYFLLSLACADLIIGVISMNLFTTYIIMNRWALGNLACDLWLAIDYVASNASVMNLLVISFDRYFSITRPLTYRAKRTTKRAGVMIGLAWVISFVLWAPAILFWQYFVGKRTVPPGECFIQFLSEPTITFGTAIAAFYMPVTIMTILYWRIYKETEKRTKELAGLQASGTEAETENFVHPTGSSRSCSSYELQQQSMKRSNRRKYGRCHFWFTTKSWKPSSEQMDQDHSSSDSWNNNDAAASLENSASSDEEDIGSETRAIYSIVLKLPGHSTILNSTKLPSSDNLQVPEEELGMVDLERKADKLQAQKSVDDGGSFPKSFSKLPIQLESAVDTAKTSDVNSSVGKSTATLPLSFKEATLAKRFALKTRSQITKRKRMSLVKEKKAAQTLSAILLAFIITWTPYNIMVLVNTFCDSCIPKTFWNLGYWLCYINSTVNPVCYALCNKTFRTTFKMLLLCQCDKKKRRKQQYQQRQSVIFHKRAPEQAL
Source text: as §1, §2, §3, §4

muscarinic receptors = details: literature; cited from earlier work
[3] = test system: NG108-15 neuroblastoma x glioma cells (m3 AChR); assay: Inhibition of PGE1-stimulated cAMP levels in NG108-15 cells; format: cell-based; details: read-out: cAMP Inhib (relative to OXO-M)
[4] = test system: SK-N-SH human neuroblastoma cells (m4 AChR); assay: Stimulation of PI turnover in SK-N-SH cells; format: cell-based; details: Homo sapiens, 0.5 h
Experimental: (§5) Compounds of the present invention were tested for their binding affinities and activation of second messengers in selective muscarinic cholinergic receptor systems. It is believed that m1 -, m4 -, and m5 AChRs couple exclusively to PI turnover, whereas m2 - and m3 -AChRs couple only to adenylate cyclase inhibition.
as §1
Stimulation of PI turnover in SK-N-SH cells
Cells were plated into 24-well plates at 100,000 cells per well. After 24 hours, they were labeled overnight with 2 μCi per well of [^3 H]-myo-inositol (American Radiolabeled Chemicals, Inc., St. Louis, Mo.; 15 Ci/mM; 2 μL of stock per mL of media). The cells were then rinsed twice with 10 mM LiCl in DMEM-Hepes and the cells were incubated in this solution for 5 min at 37° C. The indicated compound was then added at a final concentration of 100 μM and the cells were incubated for another 30 min at 37° C. The reaction was stopped by aspirating the solution and adding cold methanol to the cells. After transferring the cells to a glass tube and sonicating briefly, chloroform and water were added to make a two-phase system. The upper aqueous phase was applied to 0.6 mL anion exchange columns (AG X8, Bio-Rad) and the columns were washed and total inositol phosphates were eluted with 1M ammonium formate and 0.1M formic acid.

[5] = test system: NG108-15 neuroblastoma x glioma cells (m3 AChR); assay: Inhibition of PGE1-stimulated cAMP levels in NG108-15 cells; format: cell-based; details: for inhibition at 100 µM: NG108-15, NG108-15 cells, read-out: cAMP Inhib; for inhibition at 100 µM / cAMP Inhib: relative to control with no compounds added, conc. of compounds = 100 μM; for cAMP Inhib: NG108-15 cells, 100 µM
Experimental: as §5, §1
Inhibition of PGE1 -stimulated cAMP levels in NG108-15 cells
Cells were plated in 24-well plates and were grown to 90% confluence. The growth media was then replaced with a solution of 1 mM IBMX in DMEM-Hepes (0.5 mL per well) and the cells were incubated for 10 min at 37° C. Agonists were then added at a final concentration of 100 μM, along with PGE1 (final conc, 5 μM), and the cells were incubated for a further 15 min at 37° C. The reaction Was terminated by aspirating the solution and adding 0.5 mL of 0.1N HCl. In order to extract the cAMP from the cells, they were incubated in 0.1 N HCl for 30 min at room temperature. An aliquot (35 50 μL) was removed, lyophilized, and assayed for cAMP by radioimmunoassay.

M1 AChRs = details: M1 AChR; cited from earlier work
M2 AChRs = details: M2 AChR; cited from earlier work
m4 AChR = details: cited from earlier work
m3 AChR = details: cited from earlier work
m5 AChR = details: cited from earlier work
m2 AChR = details: cited from earlier work
[6] = NG108-15 cells, conc. of compound = 50 μM
[7] = SK-N-SH cells, conc. of compound = 50 μM
[8] = 0.25 h, NG108-15 cells, data relative to OXO-M, conc. of compounds = 50 μM
[9] = SK-N-SH cells, data relative to OXO-M, conc. of compounds = 100 μM, read-out: Pi turnover (relative to OXO-M)
[10] = SK-N-SH cells, percent relative to the activity of OXO-M, conc. of compounds = 100 μM, read-out: Pi turnover

CC(=O)N(C)C(C)C#CCN1CCCC1 (stereo not drawn) [BM 5, reference compound]
inhibition at 50 µM [1, 6]: 91 ± 1% | inhibition at 100 µM ([1]; NG108-15 cells): 97 ± 2% | inhibition at 50 µM [2, 7]: 95 ± 1% | inhibition at 100 µM ([2]; SK-N-SH cells): 99 ± 1% | muscarinic activity, in words (muscarinic receptors): potent muscarinic agent with presynaptic antagonist and postsynaptic agonist activity

CN(CC#CCN1CCCC1)C(=O)CCC(=O)O [Compound 008, N-Methyl-N-[4-(1-pyrrolidinyl)-2-butynyl]-3-carboxypropanamide]
inhibition at 50 µM [1, 6]: 1 ± 1% | inhibition at 50 µM [2, 7]: 7 ± 2% | Emax at 50 µM [3, 8]: 10 ± 10%

COC(=O)CCC(=O)N(C)CC#CCN1CCCC1 [Compound 009, N-Methyl-N-[4-(1-pyrrolidinyl)-2-butynyl]-3-methoxycarbonylpropanamide]
inhibition at 50 µM [1, 6]: 5 ± 3% | inhibition at 50 µM [2, 7]: 8 ± 1% | Emax at 50 µM [3, 8]: 10 ± 10%

CN(CC#CCN1CCCC1)C(=O)CCC(=O)NCCN [Compound 019, N-Methyl-N-[4-(1-pyrrolidinyl)-2-butynyl]-2-[4-(2-aminoethyl)carboxamido]propanamide]
inhibition at 50 µM [1, 6]: 14 ± 2% | inhibition at 50 µM [2, 7]: 25 ± 5% | Emax at 50 µM [3, 8]: 10 ± 10%

CC(=O)NCCNC(=O)CCC(=O)N(C)CC#CCN1CCCC1 [Compound 023]
inhibition at 50 µM [1, 6]: 6 ± 4% | Emax at 100 µM [4, 9]: 6 ± 4% | inhibition at 50 µM [2, 7]: 6 ± 5% | Emax at 50 µM [3, 8]: 20 ± 10%

CN(CC#CCN1CCCC1)C(=O)c1cccc(Cl)c1 [Compound 026]
inhibition at 50 µM [1, 6]: 17 ± 4% | Emax at 100 µM [4, 9]: 1 ± 1% | inhibition at 50 µM [2, 7]: 27 ± 10% | Emax at 50 µM [3, 8]: 30 ± 10%

CN(CC#CCN1CCCC1)C(=O)Oc1ccc(Cl)cc1 [Compound 027]
inhibition at 50 µM [1]: 27 ± 4% | Emax at 100 µM ([4]; SK-N-SH, read-out: Pi turnover (relative to OXO-M)): 1 ± 1% | inhibition at 50 µM [2]: 62 ± 1% | Emax at 50 µM ([3]; NG108-15, 0.25 h): 40 ± 10%

COc1ccc(NC(=O)N(C)CC#CCN2CCCC2)cc1 [Compound 028]
inhibition at 50 µM [1, 6]: 24 ± 6% | inhibition at 50 µM [2, 7]: 61 ± 12% | Emax at 50 µM [3, 8]: 20 ± 10%

CN(CC#CCN1CCCC1)CC1OCCO1 [Compound 029, N-(2,5-dioxolylmethyl)-N-methyl-4-(1-pyrrolidinyl)-2-butynamine]
inhibition at 50 µM [1, 6]: 5 ± 5% | inhibition at 50 µM [2, 7]: 19 ± 5% | Emax at 50 µM [3, 8]: 40 ± 10%

CN(CC#CCN1CCCC1)CCC1OCCO1 [Compound 031]
inhibition at 50 µM [1, 6]: 7 ± 5% | inhibition at 50 µM [2, 7]: 20 ± 3% | Emax at 50 µM [3, 8]: 50 ± 10%

CN(CC#CCN1CCCC1)C(=O)c1ccccc1 [Compound 032]
inhibition at 50 µM [1, 6]: 7 ± 4% | Emax at 100 µM [4, 9]: 4 ± 2% | inhibition at 50 µM [2, 7]: 20 ± 5% | Emax at 50 µM [3, 8]: 50 ± 20%

C[N+](C)(C)CC#CCN1CCCC1=O [OXO-M, oxotremorine-M, reference compound]
inhibition at 100 µM [5]: 64.1 ± 1.9% | cAMP Inhib [5]: 65±3% | inhibition at 50 µM [1, 6]: 74 ± 3% | inhibition at 100 µM ([1]; NG108-15 cells): 96.2 ± 2.1% | Emax at 100 µM [4, 9]: 100% | Emax at 100 µM [4, 10]: 100% | inhibition at 50 µM [2, 7]: 49 ± 12% | inhibition at 100 µM ([2]; SK-N-SH cells): 52.1 ± 1.2% | Emax at 50 µM [3, 8]: 100%

CC(=O)N(C)CC#CCN1CCCC1 [UH 5, reference compound]
agonist selectivity, in words ([5]; NG108-15 (cAMP) versus SK-N-SH (PI turnover)): acted as an agonist in both systems | inhibition at 100 µM [5]: 63.2 ± 6% | cAMP Inhib [5]: 63% | Emax at 100 µM [4, 10]: 54% | muscarinic activity, in words (muscarinic receptors): maintains agonist activity and is nearly equi-potent to oxotremorine

O=C1CCCN1CC#CCN1CCCC1 [oxotremorine]
muscarinic activity, in words (muscarinic receptors): potent and moderately selective central muscarinic agonist

CN1CCN(CC(=O)N2c3ccccc3C(=O)Nc3cccnc32)CC1 [pirenzepine]
affinity for pirenzepine (M1 AChRs): high-affinity | affinity for pirenzepine (M2 AChRs): low-affinity | affinity for pirenzepine (m4 AChR): high affinity | affinity for pirenzepine (m3 AChR): intermediate affinity | affinity for pirenzepine (m5 AChR): intermediate affinity | affinity for pirenzepine (m2 AChR): low affinity
